Data on 4 compounds can be found in patent US11590181B2, “Serpin production” (SOCIETE DES PRODUITS NESTLE S.A., priority 2017, dated 2023).

The subject of assay [1] is mouse model of gluten sensitivity. Particulars: elafin delivered by recombinant Lactococcus lactis; cited from earlier work.
The target in the next assay is T1, transglutaminase 2 (TG2) (Homo sapiens, UniProt P21980).
T1 sequence (P21980 1-687): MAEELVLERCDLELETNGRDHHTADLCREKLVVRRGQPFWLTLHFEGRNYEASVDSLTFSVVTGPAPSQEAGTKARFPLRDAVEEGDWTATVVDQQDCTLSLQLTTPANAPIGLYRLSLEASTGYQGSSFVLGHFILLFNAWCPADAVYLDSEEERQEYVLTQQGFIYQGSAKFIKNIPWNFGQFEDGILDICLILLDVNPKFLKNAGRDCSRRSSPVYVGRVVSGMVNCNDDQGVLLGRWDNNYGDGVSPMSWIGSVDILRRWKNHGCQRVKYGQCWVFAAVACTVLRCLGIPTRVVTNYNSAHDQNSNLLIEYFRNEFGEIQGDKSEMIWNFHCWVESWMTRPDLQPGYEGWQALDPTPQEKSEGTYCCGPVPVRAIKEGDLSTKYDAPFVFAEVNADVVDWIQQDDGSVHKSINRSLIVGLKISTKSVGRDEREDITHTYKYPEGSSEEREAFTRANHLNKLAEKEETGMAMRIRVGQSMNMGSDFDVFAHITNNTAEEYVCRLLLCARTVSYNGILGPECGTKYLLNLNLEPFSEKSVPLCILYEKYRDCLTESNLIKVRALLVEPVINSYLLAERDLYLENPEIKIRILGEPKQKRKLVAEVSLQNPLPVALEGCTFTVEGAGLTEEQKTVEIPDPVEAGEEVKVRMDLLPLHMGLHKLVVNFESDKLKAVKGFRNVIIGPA
The following applies: in vitro; inhibits deamidation of the 33-mer gliadin peptide; cited from earlier work.

A further assay has as its system elastases and proteinase. Particulars: cited from earlier work.
The next assay deals with BL NCC 2705 serpin. Nature of the assay: Lactose dose response in 10 L fermenter, serpin mRNA fold induction. Type of assay: cell-based, B. longum. Particulars: addition of 0.1% lactose, among 0.05%, 1%, 2% and 2.75%, glucose added to 5.5% total sugar, base 8 h culture (FIG. 2). How it is done: FIG. 2—Serpin mRNA level of B. longum NCC 2705 fermented in different growth medium after 8 h, 12 h and 16 h. Different proportions of glucose was replaced by lactose and fructose as shown in the y-axis and the total amount of sugar percentage was kept stable at 5.5%. The values were calculated based on B. longum NCC 2705 growth after 8 h in 5.5% glucose. Black bars represent significant induction. In order to optimize the effect of lactose on induction of BL NCC 2705 serpin, a dose response was performed. The fermentation was performed in a 10 L Biostar B Plus fermenter with MRSc medium, supplemented with 0.05% cysteine as base, and different concentration of lactose (0.05%, 0.1%, 1%, 2% and 2.75%) were added to the medium. Glucose was supplemented to the different recipes to reach a final total amount of 5.5% of total sugar. Serpin mRNA fold induction was calculated using the 8 h MRSc grown BL NCC 2705 culture as a base (FIG. 2).

The test system of assay [2] is serpin gene in B. longum NCC 2705. Nature of the assay: Sugar induction of serpin gene transcription in Biolector culture (qRT-PCR). Type of assay: cell-based. Particulars: 180 min sugar induction at 0.1%, relative to growth in only MRSc (FIG. 1). Here is the method:
FIG. 1—Relative transcription level of serpin gene in B. longum NCC 2705 after 180 min sugar induction at a concentration of 0.1%. The bars indicate the relative amounts of serpin mRNAs for the specific samples comparing to that of growth in only MRSc. Black bars represent significant induction. The standard deviation was obtained from at least 2 different experiments (95% confidence interval).
BL NCC 2705 (B. longum strain CNCM I-2618) was grown in Biolector (growth conditions—anaerobic, 37° C., MRS+5 mM L-cysteine (MRSc).
48-well microtiter plate with pH sensor and dissolved oxygen (DO) sensor were used to culture the strains in Biolector (m2p-labs Aachen, Germany). It was continuously shaken to prevent bacteria aggregation and measurements were performed every 15 min. Plates were sealed with a gas permeable film and an anaerobe-chamber provides well-defined anaerobic gassing conditions. Fermentation parameters like biomass, pH and dissolved oxygen (DO) were monitored online throughout the entire growth using the BioLection HMI software. Growth parameters were:
The following carbohydrates were added to the cultures individually:
B. longum NCC 2705 was then further cultivated in the same conditions for 180 min, after which samples (500 μl) were collected and serpin mRNA levels measured. Every fermentation was performed at least in duplicate.
Total RNA isolation—500 μl of bacterial cultures were suspended in 1 ml of RNA protect bacteria reagent (Qiagen, Germany) and briefly centrifuged 10 min at 5000 g to harvest cells for total RNA extraction.
Total RNA was extracted using the RNeasy total RNA Mini kit (Qiagen, Germany, Ca. No. 74101) with protease K (Qiagen, Germany, Ca. No. 19131) and further treated using RNase-free DNase set (Qiagen, Germany, Ca. No. 79254). Total RNA was then eluted in 40 μl water. […]
mRNA fold expression analysis method—The Pfaffl method was used to calculate relative transcription changes (Pfaffl, 2012, Martin Filion, Hg., Quantitative real-time PCR in Applied Microbiology, 53-62) for which the equation is shown in Equation 1: […]
In general terms: Quantitative PCR measures a nucleic acid by following its amplification.

Where no end group is shown, it is not given here.

As to “elafin: human serine protease inhibitor (AQEPVKGPVSTKPGSCPIILIRCAMLNPPNRCLKDTDCPGIKKCCEGSCGMACFVPQ; ends and bridges not checked; cysteine pairing not given here; UniProt P19957 61-117, looked up)”, the “gluten-induced pathology and intestine inflammation” value in assay [1] was “reduce gluten-induced pathology and normalise intestine inflammation”. Further, the “inhibition of transglutaminase 2 (TG2)” value with transglutaminase 2 (TG2) is recorded as “moderately inhibits”. The “inhibitory capacity against various forms of elastases and proteinase” value in the assay on elastases and proteinase is “potent inhibitory capacity”.
For `OC[C@H]1O[C@@H](O[C@H]2[C@H](O)[C@@H](O)C(O)O[C@@H]2CO)[C@H](O)[C@@H](O)[C@H]1O` (stereo partly shown) [lactose, Lactose], in the assay with BL NCC 2705 serpin, the “serpin mRNA level at end of fermentation (16 h)” value was “highest”. In assay [2], the “serpin mRNA levels of B. longum NCC 2705” value was “increase”.
For `O=C(CO)[C@@H](O)[C@H](O)[C@H](O)CO` [fructose, Fructose], the “serpin mRNA levels of B. longum NCC 2705” value in assay [2] is reported as “increase”.
The same measure, in the same setting: for `OC[C@H]1O[C@H](OC[C@H]2O[C@H](O[C@]3(CO)O[C@H](CO)[C@@H](O)[C@@H]3O)[C@H](O)[C@@H](O)[C@@H]2O)[C@H](O)[C@@H](O)[C@H]1O` [raffinose, Raffinose] the value was “increase”.
